# Assays:
# cortical cell cultures = assay: In Vitro Assay on Ischemia (glutamate toxicity after potassium cyanide / 2-deoxyglucose insult); type: cell-based; settings: concentration required to cause a 50% reduction in glutamate toxicity following an ischemic insult
# Method: To examine the in vitro effect of the inventive compounds on ischemia, cortical cell cultures were treated with various compounds of this invention during an ischemic insult utilizing potassium cyanide and 2-deoxyglucose, and for one hour thereafter. For a description of the experimental method used, see Vornov et al., J. Neurochem., Vol. 65, No. 4, pp. […] (1995).
# STZ-diabetic rats [1] = assay: Reversal of diabetic neuropathy in STZ model, delayed dosing; type: in vivo; settings: for neuropathic hyperalgesia (withdrawal latency difference scores) / motor nerve conduction velocity: daily p.o.; for neuropathic hyperalgesia (withdrawal latency difference scores): treatment started 5 weeks post STZ, within two weeks of treatment, FIG. 31; for motor nerve conduction velocity: within 8 weeks of dosing, persisted through 12 weeks, FIG. 32
# Method: Rats (200 to 225 g) were injected with STZ (70 mg/kg) into the tail vein. Diabetes (>350 mg/dl) was confirmed in all rats, 4 weeks after STZ administration. Rats were left untreated until 35 to 49 days after STZ. Compound D (1, 3, or 10 mg/kg), Compound E (10 mg/kg), or vehicle were dosed daily p.o. following confirmation of hyperalgesia and/or nerve conduction velocity deficits. In separate experiments, onset of treatment was delayed until 60 to 90 days after STZ administration. Nerve conduction velocity or withdrawal response to thermal stimulation of hind paws was measured at intervals, usually bi-weekly for thermal response and monthly for nerve conduction velocity.
# Sensory and motor nerve conduction velocities were evaluated using the method of De Koning and Gispen (Peptides 8: 415–422, 1987). Electrophysiological evaluation was carried out within one hour of dosing. Animals were anesthetized with isoflurane and stimulating needle electrodes were inserted close to the sciatic nerve at the sciatic notch and the tibial nerve near the ankle. Recording electrodes were placed over the foot muscles. Stimuli were applied and responses recorded. Motor and sensory nerve conduction velocities were calculated by measuring the distance between the sciatic notch and ankle sites, and the latency between the M-wave and the H-reflex.
# Animals were acclimated to the apparatus for at least 5 min. An infra-red source was placed under below the plantar surface of the rat hind-paw. The intensity of the source was adjusted so that latency for normal rats was about 10 secs. Animals were tested for thermal response latency according to the method of Hargreaves et al (Pain 77–88, 1988). Each animal was tested 8 times (4 each hind limb) and the latency of response recorded automatically to nearest 0.1 sec. An average of the last 4 measurements for each paw was calculated (8 total measurements) and noted for each rat.
# [2] = tested on: chronic constrictive injury-induced rats; assay: Neuropathic pain in CCI model (sciatic nerve ligation, thermal hyperalgesia); type: in vivo; settings: 50, 30, 10, 3, 1 or 0.3 mg/kg for 12 (or 15) days after sciatic nerve ligation, FIGS. 17-22
# Method: Sciatic nerve ligation, consisting of 4 ligatures tied loosely around the sciatic nerve at 1 mm intervals proximal to the nerve trifurcation, was performed on rats. […] The rats were habituated to a Hargreaves apparatus. An infrared heat source was directed onto the dorsal surface of each rat's hindpaws and the time taken for the rat to withdraw its paws was noted. The difference in scores between the latency of the response for the paw on the operated side versus the paw on the unoperated control side was determined.
# The rats were treated with either Compound 49 (10, 1 or 0.1 mg/kg) or a vehicle for 15 days after sciatic nerve ligation. Thermal pain responses were measured at days 0, 1, 5, 8, 11 and 15. The differences in scores for the rats treated with a vehicle and the rats treated with Compound 49 are graphically presented in FIGS. 13-15.
# The rats were treated with either Compound 5 (50, 30, 10, 3, 1 or 0.3 mg/kg) or a vehicle for 12 (or 15) days after sciatic nerve ligation. Thermal pain responses were measured at days 0, 1, 5, 8 and 12 (and 15). The differences in scores for the rats treated with a vehicle and the rats treated with Compound 5 are graphically presented in FIGS. 17-22.
# The rats received either Compound C (50 mg/kg i.p. daily) or a vehicle starting 10 days post surgery. […] Normal (unoperated) rats had approximately equal latencies for both paws. This effect was significant starting at 11 days of drug treatment and persisted through to the end of the study (for 21 days of daily dosing).
# BB/W diabetic rats = assay: Progression of neuropathic pain and nerve conduction deficits in BB/W model; type: in vivo
# Excerpt: Male BB/W rats (BRI, Mass) spontaneously develop a cell mediated autoimmune destruction of pancreatic B cells, resulting in onset of insulin-dependent (Type I) diabetes (Guberski 1994). […] This renders them valuable for experimental trials of new compounds for future treatments of this major disorder. In the present study, Compound D and Compound A were examined for their ability to alter the progression of diabetic neuropathy. […] Another group of non-diabetic rats also receiving vehicle were tested. All animals were continuously monitored for body weight, urine volume, blood sugar and glycated haemoglobin. In the first month of the study, all animals were tested for thermal nociception in a Hargreaves apparatus, weekly. After the first month this was done biweekly and then monthly. The testing consists of directing an infrared heat source onto the dorsal surface of the rat hindpaw and noting the time taken for the animal to remove its paw (see Hargreaves et al., supra, for a description of the experimental method). Each animal was tested 8 times and the mean withdrawal latency noted.
# Nerve conduction velocity was also measured every two weeks through the first eight weeks of treatment and every month thereafter through to the six months of treatment (see De Koning et al., Peptides, Vol. 8, No. 3, pp. 415–22 (1987) for a description of the experimental method). […] This was apparent starting at 8 weeks of treatment and persisted to a similar degree through to the six month termination point of the study.
# [3] = tested on: STZ-induced diabetic rats; assay: Neuropathic pain in STZ model (Hargreaves thermal nociception); type: in vivo, Sprague-Dawley rats; settings: 10 mg/kg i.p. daily, treatment started 45 days post-STZ
# Method: Male Sprague-Dawley rats (200–225 g) were rendered diabetic by intravenous administration of streptozotocin (“STZ”, 70 mg/kg in phosphate buffered saline). Diabetic animals were divided into five groups: one group receiving Compound A (10 mg/kg or 1 mg/kg), Compound D (10 mg/kg or 1 mg/kg) or vehicle. Another group of animals (non-STZ treated) served as non-diabetic controls. Drug/vehicle treatment was started in diabetic animals 45 days post-STZ administration. STZ-induced diabetic rats were tested for sensitivity to a heat source as soon as blood glucose levels rose to 320 mg/dl or above (30 days post STZ). The rats were then acclimated to a Hargreaves apparatus and thermal nociception was monitored using an infrared heat source directed into the dorsal surface of the hindpaw, and the time taken for the animal to remove its paw noted to the nearest 0.1 seconds (see Hargreaves et al., supra, for detailed experimental method). The intensity of the beam source was adjusted such that the mean latency for control animals (non-STZ treated) was approximately 10 seconds. Each animal was tested 8 times and the mean difference score (between mean non-diabetic control latency and mean diabetic latency) are graphically presented in FIGS. 7A and 7B.
# STZ-diabetic rats [4] = assay: Diabetic neuropathy in STZ model (motor and sensory nerve conduction velocity); type: in vivo
# Method: Motor and sensory nerve conduction velocity was also measured in STZ-diabetic animals after 4, 8 and 12 weeks of treatment (see De Koning et al., supra, for a description of the experimental method). Briefly, stimulating needle electrodes were inserted close to the sciatic and tibial nerves with recording electrodes being placed subcutaneously over the distal foot muscles, in anesthetized rats.
SMILES,EC50 (cortical cell cultures) [nM],neuropathic hyperalgesia (withdrawal latency difference scores) (STZ-diabetic rats [1]),motor nerve conduction velocity (STZ-diabetic rats [1]),difference in scores between the operated and unoperated paws [2],"nerve conduction velocity deficits versus diabetic vehicle controls (BB/W diabetic rats; 10 mg/kg daily, from 8 weeks to six months of treatment, FIG. 12)","withdrawal latency versus diabetic vehicle-treated rats (BB/W diabetic rats; 10 mg/kg i.p. daily, starting after 4 weeks and through six months of treatment, FIG. 11)","motor nerve conduction (STZ-diabetic rats [1]; lower doses 1 and 3 mg/kg, treatment 7 weeks post STZ, even 8 weeks after dosing)","sensory nerve conduction (STZ-diabetic rats [1]; lower doses 1 and 3 mg/kg, treatment 7 weeks post STZ, within 4 weeks of treatment)","neuropathic pain abnormalities (STZ-diabetic rats [1]; lower doses 1 and 3 mg/kg, treatment initiated 7 weeks post STZ, FIG. 34)","sensory and motor nerve conduction velocity deficits (STZ-diabetic rats [1]; rats left untreated until 60 days after STZ, external CRO, FIGS. 37 and 38)",hyperalgesic response (withdrawal latency difference score) [3],treatment time after which increase of motor and sensory nerve conduction velocities was significant (STZ-diabetic rats [4]; 10 mg/kg treatment group) [weeks],"motor and sensory nerve conduction velocities versus diabetic controls (STZ-diabetic rats [4]; either dose (10 mg/kg or 1 mg/kg), FIGS. 10A and 10B)"
"O=C(O)c1cccc(CC(CCCS)C(=O)O)c1 (stereo not drawn) [Compound 5, 3-carboxy-alpha-(3-mercaptopropyl)-benzenepropanoic acid]",6.5,reversed towards normal,reversed the motor nerve conduction velocity towards normal,normalized the difference in scores,–,–,–,–,–,–,–,–,–
"O=C(O)CCC(CCS)C(=O)O (stereo not drawn) [Compound D, 2-(2-sulfanylethyl)pentanedioic acid]",–,reversed towards normal,reversed the motor nerve conduction velocity towards normal,–,significantly less severe nerve conduction deficits,longer withdrawal latencies,remained unimproved,significantly improved towards normal,Significant reduction in pain abnormalities,Partial reversal of both deficits,completely reversed,12,increased both motor and sensory nerve conduction velocities

# — US6992215B2, “Thiol-based NAALADase inhibitors” (Guildford Pharmaceuticals Inc., priority 2001, dated 2006)
